Results on 38 compounds are retold here after patent US20260125359A1, “HETEROARYL COMPOUNDS AS MULTI-TARGET PROTEIN KINASE INHIBITORS” (FUJIAN HAIXI PHARMACEUTICALS CO., LTD., priority 2023, published 2026).

Molecules are shown by their SMILES. pIC50: −log10 of the molar value.

This assay has as its system M-NFS-60 cells. In words: M-NFS-60 cell in vitro assay (CCK, 48 h, M-CSF factor medium). The assay is classed as cell-based. To be noted: M-NFS-60 cells; read-out: M-NFS-60cellassay IC50. On the procedure:
To determine the inhibitory activity of compounds on M-NFS-60 cells.
• M-NFS-60 cell line (ATCC, Cat. No.: CRL-1838) • RPMI-1640 medium (Gibco, domestic subpackage, Cat. No.: C11875500BT) • Recombinant Mouse CSF1/M-CSF (Sino Biological Inc., Cat. No.: 51112-MNAH) • PAN/Serum (BioTECH, Cat. No.: P30-2602) • Trypsin/0.05% Trypsin-EDTA (Gibco, Cat. No.: 25300-062) • 0.4% Trypan Blue (Sigma, Cat. No.: T8154-20 ml) • Penicillin-Streptomycin (Hyclone, Cat. No.: SV30010) • DMSO (Solarbio, Cat. No.: D8371) • PBS (Solarbio, Cat. No.: P1020) • CCK (AbMole BioScience, Cat. No.: M4839-500Tests)
• 1) M-CSF factor stock solution: take 10 μg of powdered m-CSF factor, add 0.4 ml of saline, formulate 25 ug/ml and store at −80° C. • 2) M-CSF factor (25 ng/ml) medium: • 1640 (Gibco)+10% PAN+100×Penicillin-Streptomycin+100×M-CSF stock solution • 3) Complete medium: • 1640 (Gibco)+10% PAN+100×Penicillin-Streptomycin • 4) Compound preparation: 2-3 mg of the compound was added to DMSO to formulate a 30 mM stock solution, −80° C. refrigerator storage
• 1) Cell resuscitation: the frozen cells in the cryovial were thawed rapidly by shaking in a 37° C. water bath, then 4 mL of medium was added. After mixing evenly, they were centrifuged at 125×g for 5 min, and the supernatant was discarded. The cells were resuspended and transferred to the culture flasks, and were cultured in a 5% CO2 fully saturated humidity incubator. • 2) Cell passaging: M-NFS-60 cells are semi-suspension cells, which were collected directly in a 15 mL centrifuge tube, centrifuged at 125×g for 5 min. and the supernatant was discarded. The cells were resuspended and passaged into new culture flasks at a ratio of 1:5 to 1:10. • 3) After the newly resuscitated cells were passaged 1-2 times for cell stabilization, compound inhibition assays were started when the cells were in the logarithmic growth phase. • (a) Cell collection and counting: the same as the cell passaging step, centrifuge in two tubes, one tube with M-CSF factor medium to resuspend the cells, the other tube with complete medium to resuspend the cells. Take 10 μL of cell suspension in each tube, and count the cells by Tepan blue staining. • (b) Dilute the cell solution according to the concentration of inoculated cells respectively, the concentration of M-NFS-60 cells inoculated with factor was 5.56×10^4 cells/mL, and the concentration of inoculated without factor was 5×10^4 cells/mL. • (c) Seed plate: 384 well plate inoculated with M-NFS-60 cells, 36 uL/well, triplicate wells, the number of inoculated cells was equivalent to 2000 cells/well, set with blank control, factor free negative control, normal control, DMSO control and experimental wells. The cells were placed in a 5% CO2 fully saturated humidity incubator for 4 h. • (d) Sampling compounds: 96 well plates were used for compound preparation. The compound solution prepared in advance was diluted to corresponding gradient concentration with DMSO. An appropriate amount of the diluted solution in the previous step was added to an equal volume of factor containing medium. The 96 well plates were centrifuged at 1000 rpm for 5 min, which played the role of defoaming and spinning down droplets and condensation. Remove the 384 well plate from the incubator, add the diluted compound solution into each well sequentially, 4 μL/well; DMSO wells and normal wells were added with corresponding factor containing medium, 4 μL/well. Then it was put into CO2 incubator for 48 h. • (e) After incubation for 48 h, CCK was added to each well, 4 uL, and the plates were placed in the incubator for another 2 h, and then the OD (optical density) value at 450 nm was measured by microplate reader.
The IC50 values for each test compound were fitted using professional graphing and analysis software.
For orientation: pIC50 means −log10 of the IC50, conventionally taken in molar units. Regarding `Cc1cccc(C(=O)Nc2ccc(F)c3c2CC[C@@H]3Nc2cnc3cn(C)nc3c2)c1F` [Compound 83, (S)-2-fluoro-N-(7-fluoro-1-((2-methyl-2H-pyrazolo[4,3-b]pyridin-6-yl)amino)-2,3-dihydro-1H-inden-4-yl)-3-methylbenzamide], the negative-log IC50 (pIC50) was over 7.30.

In the case of `Cn1cc(-c2cncc(N[C@H]3CCc4c(Nc5cnn(C(C)(C)C)c5)cccc43)n2)cn1` [Compound 39a], the pIC50 was under 6.30.

As to `Cn1cc2ncc(N[C@H]3CCc4c(Nc5noc(C6CCCC6)n5)cccc43)cc2n1` [Compound 93k], the pIC50 was over 7.30.

With `COc1cccc(NC(=O)c2cccc3c2CC[C@@H]3N(C)c2cnc3cnn(C)c3c2)c1F` [Compound 80x], the pIC50 was 6.70 to 7.30.

`CN(C)Cc1cccc(NC(=O)c2cccc3c2CC[C@@H]3Oc2cc(-c3cnn(C)c3)cnc2N)c1` [Compound 5e]: the pIC50 is over 7.30.

For the compound `CN1CCN(Cc2cccc(NC(=O)c3cccc4c3CC[C@@H]4Nc3cncc(-c4cnn(C)c4)c3)c2)CC1` [Compound 14ar], the pIC50 is 6.30 to 6.70.

Take `COc1cccc(C(=O)Nc2cccc3c2CC[C@H]3Oc2cc(-c3cnn(C)c3)cnc2N)c1` [Compound 3a]: the pIC50 is under 6.30.

For the compound `Cc1cccc(NC(=O)c2cccc3c2CC[C@@H]3N(C)c2cnc3cnn(C)c3c2)c1F` [Compound 79, (S)—N-(2-fluoro-3-methylphenyl)-1-(methyl (1-methyl-1H-pyrazolo[4,3-b]pyridin-6-yl)amino)-2,3-dihydro-1H-indene-4-carboxamide], the pIC50 is over 7.30.

As to `CN(c1cnc2cnn(C)c2c1)[C@H]1CCc2c(C(=O)Nc3nn(C)c4ccccc34)cccc21` [Compound 80h], the pIC50 is over 7.30.

With `Cn1cc(-c2cncc(N[C@H]3CCc4c(NC5CCCCC5)cccc43)n2)cn1` [Compound 60a], the pIC50 is under 6.30.

As for `Cn1cc2ncc(N[C@H]3CCc4c(Nc5noc(C(C)(C)C)n5)cccc43)cc2n1` [Compound 93i], the pIC50 is over 7.30.

Regarding `COc1cccc(C(=O)Nc2cccc3c2CC[C@@H]3Oc2cc(-c3cnn(C)c3)cnc2N)c1` [Compound 3b], the pIC50 was over 7.30.

For `CC(C)c1csc(Nc2cccc3c2CC[C@@H]3Nc2cncc(-c3cnn(C)c3)n2)n1` [Compound 35, (S)—N^4-(4-isopropylthiazol-2-yl)-N^1-(6-(1-methyl-1H-pyrazol-4-yl)pyrazin-2-yl)-2,3-dihydro-1H-indene-1,4-diamine], the pIC50 is 6.70 to 7.30.

As to `COC(=O)Nc1cccc2c1CC[C@@H]2Nc1cncc(-c2cnn(C)c2)n1` [Compound 29, methyl(S)-(1-((6-(1-methyl-1H-pyrazol-4-yl)pyrazin-2-yl)amino)-2,3-dihydro-1H-inden-4-yl) carbamate], the pIC50 is under 6.30.

Consider `Cn1cc(-c2cncc(N[C@H]3CCc4c(Nc5nc(C(C)(C)C)cs5)ccc(F)c43)c2)cn1` [Compound 42t], for which the pIC50 was 6.70 to 7.30.

In the case of `Cn1cc(-c2cncc(N[C@H]3CCc4c(NC(=O)c5cccc(C(F)(F)F)c5)ccc(F)c43)c2)cn1` [Compound 46d], the pIC50 was over 7.30.

Regarding `Cc1cccc(C(=O)Nc2c(F)ccc3c2CC[C@@H]3Nc2cncc(-c3cnn(C)c3)c2)c1` [Compound 46b], the pIC50 is 6.70 to 7.30.

Regarding `Cn1cc(-c2cncc(N[C@H]3CCc4c(NCc5cccc(Cl)c5)cccc43)n2)cn1` [Compound 60c], the pIC50 was under 6.30.

For `Cn1ncc2ncc(O[C@H]3CCc4c(C(=O)Nc5cccc(C6CC6)c5F)cccc43)cc21` [Compound 76bc], the pIC50 was over 7.30.

As for `Cc1cccc(NC(=O)c2cccc3c2CC[C@@H]3Nc2cncc(Cl)n2)c1` [Compound 33c, (S)-1-((6-chloropyrazin-2-yl)amino)-N-(m-tolyl)-2,3-dihydro-1H-indene-4-carboxamide], the pIC50 was over 7.30.

Take `Cn1cc(-c2cncc(N[C@H]3CCc4c(C(=O)NC5CCOCC5)cccc43)n2)cn1` [Compound 27l]: the pIC50 is under 6.30.

As to `Cn1ncc2ncc(N[C@H]3CCc4c(Nc5nc(C(C)(C)C)co5)cccc43)cc21` [Compound 91g], the pIC50 is 6.70 to 7.30.

In the case of `Cn1cc(-c2cncc(N[C@H]3CCc4c(NC(=O)c5cccc(CN6CCCC6)c5)cccc43)c2)cn1` [Compound 28b], the pIC50 was under 6.30.

Regarding `COc1cccc(C(=O)Nc2cccc3c2CCCC3Oc2cc(-c3cnn(C)c3)cnc2N)c1` (centres unmarked) [Compound 2a], the pIC50 is under 6.30.

In the case of `CN(c1cnc2cnn(C)c2c1)[C@H]1CCc2c(C(=O)Nc3ccc(F)c(Cl)c3)cccc21` [Compound 80r], the pIC50 is over 7.30.

Regarding `CN1CCN(c2cccc(NC(=O)c3cccc4c3CC[C@@H]4Nc3cncc(-c4cnn(C)c4)c3)c2)CC1` [Compound 14ai], the pIC50 is 6.70 to 7.30.

As for `CN(c1cncc(-c2cnn(C)c2)c1)[C@H]1CCc2c(C(=O)Nc3cccc(C4CC4)c3)cc(F)cc21` [Compound 52, (S)—N-(3-cyclopropylphenyl)-6-fluoro-1-(methyl (5-(1-methyl-1H-pyrazol-4-yl)pyridin-3-yl)amino)-2,3-dihydro-1H-indene-4-carboxamide], the negative-log IC50 (pIC50) was over 7.30.

On to `CN(c1cnc2cnn(C)c2c1)[C@H]1CCc2c(Nc3cc(C(C)(C)C)on3)cccc21` [Compound 94, (S)—N^4-(5-(tert-butyl)isoxazol-3-yl)-N^1-methyl-N^1-(1-methyl-1H-pyrazolo[4,3-b]pyridin-6-yl)-2,3-dihydro-1H-indene-1,4-diamine], for which the pIC50 was 6.30 to 6.70.

As for `Cn1ncc2ncc(O[C@H]3CCc4c(C(=O)Nc5cccc(C6CC6)c5)ccc(F)c43)cc21` [Compound 85, (S)—N-(3-cyclopropylphenyl)-7-fluoro-1-((1-methyl-1H-pyrazolo[4,3-b]pyridin-6-yl)oxy)-2,3-dihydro-1H-indene-4-carboxamide], the pIC50 was over 7.30.

Take `CN(c1cnc2cn(C)nc2c1)[C@H]1CCc2c(C(=O)Nc3ccc(F)c(Cl)c3)cccc21` [Compound 80t]: the pIC50 was over 7.30.

As to `Cn1ccc2ncc(N[C@H]3CCc4c(C(=O)Nc5cccc(C6CC6)c5)cccc43)cc21` [Compound 74e], the negative-log IC50 (pIC50) is over 7.30.

For `Cn1cc(-c2cncc(NC3CCc4c(Nc5cc(C(C)(C)C)on5)cccc43)c2)cn1` (centres unmarked) [Compound 48, N^4-(5-(tert-butyl)isoxazol-3-yl)-N^1-(5-(1-methyl-1H-pyrazol-4-yl)pyridin-3-yl)-2,3-dihydro-1H-indene-1,4-diamine], the pIC50 is over 7.30.

Consider `CN(c1cncc(-c2cnn(C)c2)c1)[C@H]1CCc2c(C(=O)Nc3nn(C)c4ccccc34)cccc21` [Compound 22g], for which the pIC50 is over 7.30.

For `Cn1cc2ncc(N[C@H]3CCc4c(NC(=O)c5cccc(C6CC6)c5)cccc43)cc2n1` [Compound 81, (S)-3-cyclopropyl-N-(1-((2-methyl-2H-pyrazolo[4,3-b]pyridin-6-yl)amino)-2,3-dihydro-1H-inden-4-yl)benzamide], the negative logarithm of the IC50 (pIC50) is over 7.30.

For `Cn1cc(-c2cncc(N[C@H]3CCc4c(NC5(c6ccccc6)COC5)cccc43)c2)cn1` [Compound 63, (S)—N^1-(5-(1-methyl-1H-pyrazol-4-yl)pyridin-3-yl)-N^4-(3-phenyloxetan-3-yl)-2,3-dihydro-1H-indene-1,4-diamine], the pIC50 is under 6.30.

With `Cn1cc(-c2cncc(N[C@H]3CCc4c(Nc5nc(C6CC6)cs5)cccc43)n2)cn1` [Compound 36b], the negative logarithm of the IC50 (pIC50) is 6.70 to 7.30.

On to `Cn1cc(-c2cncc(N[C@H]3CCc4c(CNC5CCCCC5)cccc43)n2)cn1` [Compound 59f], for which the pIC50 is under 6.30.

As to `Clc1cncc(N[C@H]2CCc3c(Nc4noc5ccccc45)cccc32)c1` [Compound 42j], the pIC50 was under 6.30.
